Laboratory results: US9795643B2, “Oncolytic measles virus” (priority 2010, dated 2017)

Tested on: subcutaneously grown Hep3B tumors
Assay: Murine xenograft model of human HCC (Hep3B)
Format: in vivo, nude mice
Protocol: To test the armed vectors pc3MerV2 Id-SCD, pMerV2 P-SCD, and pc3MerV2 Id-VP22SCD in vivo, a murine xenograft model of human HCC was applied.
To compare the armed vectors, a mouse model of subcutaneously grown Hep3B tumors was chosen. This decision was based on the facts (i) that Hep3B can be efficiently infected by MeV and support MeV replication at high levels, (ii) that in Hep3B, the conversion of 5-FC into 5-FU is fast and efficient and (iii) that over an incubation of 1-4 days after addition of the prodrug to infected cells, an increasing gap between the treatment with virus alone and the combination treatment can be observed. Additionally, a mouse model of Hep3B has been described before (Blechacz B, Splinter P L, Greiner S, Myers R, Peng K W, Federspiel M J, Russell S J, LaRusso N F. Hepatology. 2006 December; 44(6):1465-77) with a high engraftment ratio (80%, personal communication with Boris Blechacz, Mayo Clinic, Rochester, Minn., USA). In contrast, this ratio is much lower in PLC/PRF/5 (60%) and in HepG2, both determined in our laboratory.
For this in vivo experiment, six week old nude mice received subcutaneous injections of 100 μl cell suspension containing 10^6 Hep3B cells in PBS. […] The tumors were very well vascularized and appeared blue through the nude skin of the mice. After the tumors had grown to a diameter of approximately 5 mm, the mice received five intratumoral injections of the respective virus (MeV Id-SCD, MeV Id-VP22SCD or MeV P-SCD) with 2*10^6 pfu per injection and one injection daily (total dose: 10^7 pfu). Control groups were treated with medium only. On the following seven days, the mice received 500 mg/kg bodyweight 5-FC in PBS intraperitoneally. Tumor volume and weight of the animals were determined three times a week.
The combinatorial treatment (MeV-SCD+5-FC) did neither lead to any visible changes in the behavior of the animals, nor did they show reactions like enhanced sensitivity to touch. The skin of the mice looked healthy, no changes in their movement or feeding behaviors were observed and their weight remained stable.

Compound: Nc1nc(=O)[nH]cc1F [5-FC, 5-fluorocytosine]
- effect of administration of the prodrug alone (5-FC 500 mg/kg i.p., 7 days, no virus): no effect
- day before which all mice had to be sacrificed (5-FC only group): < 50 days
- median survival (virus 5 intratumoral injections 2*10^6 pfu, 5-FC 500 mg/kg i.p. for 7 days): 32 days
